Entries after “also recorded” stand apart in the source; their conditions may differ.
Key:
Soybean plants [1] = test: Soil drench assay, soybean plants; format: in vivo; design: key to phytotoxicity (qualitative), soil drench: NOE: No Observable Effect; XXX: Dead; -: the lowest phytotoxic effect; --: phytotoxicity that did not result in death; ---: phytotoxicity that did not result in death; ------: the highest; details: for overall phytotoxicity to soybean plants, soil drench: 0.5%-1% formulations; for phytotoxicity (qualitative), soil drench: Soybean, 40 mL
Procedure: Soybean plants were planted under 1 cm of potting soil and watered every 2-3 days as necessary. Plants were grown in pots (6″ wide×4.5″ deep) with approximately 800 mL of soil for each plant. Seeds germinated approximately 3-5 days after being planted. Plants were grown in a greenhouse under a constant temperature and light environment (25±5° C., 12 hr: 12 hr light: dark cycle). Plants were grown until reaching 1-2 weeks old and 3-4 weeks old; these plants served as the “young” and “old” plants in this study, respectively.
Formulations of the various active ingredients were created using the monoterpenoid derivatives, potassium hydroxide, and Triton-X 100™ to aid in the solvation of the active ingredient. Formulations consisted of 0.5%-1% active ingredient by weight (0.5-1 g/100 ml water), with a 1:1 molar ratio of potassium hydroxide used to aid in the solvation (135-269 mg/100 mL for both thymyloxyacetic acid and carvacryloxyacetic acid). […] Formulations were applied to the soil next to the base of the stem of the plant to avoid foliar contact. Observations were performed 2 days and 3 weeks after soil drench to determine the effects of the treatments on the various types and stages of plants.

Soybean plants [2] = test: Soil drench assay, soybean plants; format: in vivo; design: key: NOE: No Observable Effect; XXX: Dead; -: the lowest phytotoxic effect; --: phytotoxicity that did not result in death; ---: phytotoxicity that did not result in death; ------: the highest; details: 3-weeks after treatment, Old Plants, 7%, 40 mL
Corn plants = test: Soil drench assay, corn plants; format: in vivo; design: key to phytotoxicity (qualitative), soil drench: NOE: No Observable Effect; XXX: Dead; -: the lowest phytotoxic effect; --: phytotoxicity that did not result in death; ---: phytotoxicity that did not result in death; ------: the highest; details: for overall phytotoxicity to corn plants, soil drench: 0.5%-1% formulations; for phytotoxicity (qualitative), soil drench: Corn, 40 mL
Procedure: Corn plants were planted under ½″ of potting soil and watered every 2-3 days as necessary. Plants were grown in potting plants (6″ wide×4.5″ deep) with approximately 800 mL of soil for each plant. Seeds germinated approximately 4-7 days after being planted. Plants were grown in a greenhouse under a constant temperature and light environment (25±5° C., 12 hr: 12 hr light: dark cycle). Plants were grown until reaching 1-2 weeks old and 3-4 weeks old; these plants served as the “young” and “old” plants in this study, respectively. Formulations of the various active ingredients were created using the monoterpenoid derivatives, potassium hydroxide, and Triton-X 100™ to aid in the solvation of the active ingredient. […] Formulations were applied to the soil next to the base of the stem of the plant to avoid foliar contact. Observations were performed 2 days and 3 weeks after soil drench to determine the effects of the treatments on the various types and stages of plants.

corn seeds = test: Germination assay, corn seeds coated with compound; details: for inhibition of corn seed germination: seed coating 1% weight compound/weight seed, 3, 5, 7 days
soybeans = test: Germination assay, soybeans coated with compound; format: in vivo, soybean; details: beans coated in 1% weight compound/weight bean
Source text: Soybeans were susceptible to Aphis glycines infestation and were not determined to be a biotype that was resistant to infestation, which could confide results. Germination typically occurred between 3-5 days after moistening.

[3] = system: Palmer Amaranth (Amaranthus palmeri); test: Toxicity assay (probit LC50), Palmer amaranth; format: in vivo
Source text: (§1) Palmer amaranth seeds were obtained from the Department of Agronomy at Iowa State University. Individual seeds were sown for each pot (1.5″ wide×3″ deep) with approximately 7.5 g of soil for each plot. Five seeds/plot were sown into numerous plots. After one month of germination, germinated plants were counted in each plot and this number was used for the total number of plants challenged per plot in the toxicity assessment
(§2) The total number of plants were counted in each plot in 24×6 hexagonal small plot planter tray. The number of germinated seeds in each plot was enumerated after one month, and for each plot this number was recorded and used as the total for each plot. Differing concentrations of thymyloxyacetic acid was applied in 5% Triton-X 100 and 1:1 molar ratio potassium hydroxide:thymyloxyacetic acid to aid in the solubility of the compound in water. Ten mL of solution was applied to each plot, and the mortality of the plants was assessed at 3 days and 2 weeks post application (for some treatments). Mortality at these time points were enumerated out of the total plants germinated in each plot at the beginning of the assay. At both time points, the total number of dead plants and total number of plants at the beginning of the assay were recorded for each observation. A Probit model was used to calculate the LC50 values for each of the compounds explored in this assay. A formulation control (with no active ingredient) was screened against a number of plants and factored into the final probit model. This formulation control had little-to-no effect by itself.

[4] = system: Waterhemp (Amaranthus tuberculatus); test: Toxicity assay (probit LC50), waterhemp; format: in vivo
Source text: as §1, with “Waterhemp seeds” for “Palmer amaranth seeds”, “seeds/plot was” for “seeds/plot were”, “toxicity assessment.” for “toxicity assessment”
as §2

Wood sorrel = test: Foliar spray, wood sorrel; format: in vivo; details: 20 sprays of 1%, observed 2 days after exposure and later
Procedure: Wood sorrel on the ground of the greenhouse was also treated with active ingredient in order to better assess the effects of foliar treatments on multiple plant species. A patch of wood sorrel was (approximately 4′×3′) was treated with 20 sprays (mist setting) from a MAINStays ironing spray bottle. Effects of the spray were recorded 2 days after exposure.

[5] = system: various dicot weed species; test: Selectivity assessment, dicot weed species compared to bluegrass; format: in vivo; details: range over various weed species
Source text: Kentucky bluegrass seeds were purchased in a bag under the commercial name of. Individual seeds were sown for each pot (1.5″ wide×3″ deep) with approximately 7.5 g of soil for each plot. 10 seeds/plot was sown into numerous plots. After one month of germination, germinated plants were counted in each plot and this number was used for the total number of plants challenged per plot in the toxicity assessment.
as §2, with “A formulation control (with no active ingredient) was screened against a number of plants and factored into the final probit model. This formulation control had little-to-no effect by itself.” left out

[6] = system: Cocklebur (Xanthium spp.); test: Toxicity assay (probit LC50), cocklebur; format: in vivo
Source text: as §1, with “Cocklebur burs” for “Palmer amaranth seeds”, “One bur/plot was” for “Five seeds/plot were”, “assessment.” for “assessment”
as §2

[7] = 2-days after treatment, Old Plants, 0.50%
[8] = 2-days after treatment, Old Plants, 1%
[9] = 2-days after treatment, Young Plants, 0.50%
[10] = 2-days after treatment, Young Plants, 1%
[11] = 3-weeks after treatment, Old Plants, 0.50%
[12] = 3-weeks after treatment, Young Plants, 0.50%
[13] = 3-weeks after treatment, Young Plants, 1%
[14] = 3-weeks after treatment, Old Plants, 1%

COc1cc(C(=O)O)ccc1OCC(=O)O [vanillic acid-oxyacetic acid, 4-(carboxymethoxy)-3-methoxybenzoic acid]
overall phytotoxicity to soybean plants, soil drench (Soybean plants [1]): did not cause phytotoxic effects | phytotoxicity (qualitative), soil drench (Soybean plants [1]; [7]): NOE | phytotoxicity (qualitative), soil drench (Soybean plants [1]; [8]): NOE | phytotoxicity (qualitative), soil drench (Soybean plants [1]; [9]): NOE | phytotoxicity (qualitative), soil drench (Soybean plants [1]; [10]): NOE | phytotoxicity (qualitative), soil drench (Soybean plants [1]; [11]): NOE | phytotoxicity (qualitative), soil drench (Soybean plants [1]; [12]): NOE | phytotoxicity (qualitative), soil drench (Soybean plants [1]; [13]): NOE | phytotoxicity (qualitative), soil drench (Soybean plants [2]): NOE | overall phytotoxicity to corn plants, soil drench (Corn plants): did not produce significant phytotoxic symptoms | phytotoxicity (qualitative), soil drench (Corn plants; [7]): NOE | phytotoxicity (qualitative), soil drench (Corn plants; [8]): NOE | phytotoxicity (qualitative), soil drench (Corn plants; [9]): NOE | phytotoxicity (qualitative), soil drench (Corn plants; [10]): NOE | phytotoxicity (qualitative), soil drench (Corn plants; [11]): NOE | phytotoxicity (qualitative), soil drench (Corn plants; [14]): NOE | phytotoxicity (qualitative), soil drench (Corn plants; [12]): NOE | phytotoxicity (qualitative), soil drench (Corn plants; [13]): NOE | inhibition of corn seed germination (corn seeds): significantly inhibited by all compounds screened except for

C=CCc1ccc(OCC(=O)O)c(OC)c1 [eugenyloxyacetic acid, 2-(4-allyl-2-methoxyphenoxy)acetic acid]
phytotoxicity (qualitative), soil drench (Soybean plants [1]; [7]): - | phytotoxicity (qualitative), soil drench (Soybean plants [1]; [8]): - | phytotoxicity (qualitative), soil drench (Soybean plants [1]; [9]): - | phytotoxicity (qualitative), soil drench (Soybean plants [1]; [10]): -- | phytotoxicity (qualitative), soil drench (Soybean plants [1]; [11]): XXX | phytotoxicity (qualitative), soil drench (Soybean plants [1]; [12]): - | phytotoxicity (qualitative), soil drench (Soybean plants [1]; [13]): XXX | inhibition of soybean germination/growth (words) (soybeans): prevented the growth of soybeans | phytotoxicity (qualitative), soil drench (Soybean plants [2]): - | phytotoxicity (qualitative), soil drench (Corn plants; [7]): NOE | phytotoxicity (qualitative), soil drench (Corn plants; [8]): - | phytotoxicity (qualitative), soil drench (Corn plants; [9]): NOE | phytotoxicity (qualitative), soil drench (Corn plants; [10]): NOE | phytotoxicity (qualitative), soil drench (Corn plants; [11]): - | phytotoxicity (qualitative), soil drench (Corn plants; [14]): -- | phytotoxicity (qualitative), soil drench (Corn plants; [12]): - | phytotoxicity (qualitative), soil drench (Corn plants; [13]): -- | corn seed germination at day 3 (corn seeds; seed coating, day 3): some level of germination

COc1cc(C=O)ccc1OCC(=O)O [vanillyloxyacetic acid, 2-(4-formyl-2-methoxyphenoxy)acetic acid]
overall phytotoxicity to soybean plants, soil drench (Soybean plants [1]): did not cause phytotoxic effects | phytotoxicity (qualitative), soil drench (Soybean plants [1]; [7]): NOE | phytotoxicity (qualitative), soil drench (Soybean plants [1]; [8]): NOE | phytotoxicity (qualitative), soil drench (Soybean plants [1]; [9]): NOE | phytotoxicity (qualitative), soil drench (Soybean plants [1]; [10]): NOE | phytotoxicity (qualitative), soil drench (Soybean plants [1]; [11]): NOE | phytotoxicity (qualitative), soil drench (Soybean plants [1]; [12]): NOE | phytotoxicity (qualitative), soil drench (Soybean plants [1]; [13]): NOE | inhibition of soybean germination/growth (words) (soybeans): little to no inhibitory effect | inhibition of soybean germination/growth (words) (soybeans; listed as Vanillyloxyacetic acid): does not produce significant inhibition of plant growth | phytotoxicity (qualitative), soil drench (Soybean plants [2]): NOE | overall phytotoxicity to corn plants, soil drench (Corn plants): did not produce significant phytotoxic symptoms | phytotoxicity (qualitative), soil drench (Corn plants; [7]): NOE | phytotoxicity (qualitative), soil drench (Corn plants; [8]): NOE | phytotoxicity (qualitative), soil drench (Corn plants; [9]): NOE | phytotoxicity (qualitative), soil drench (Corn plants; [10]): NOE | phytotoxicity (qualitative), soil drench (Corn plants; [11]): NOE | phytotoxicity (qualitative), soil drench (Corn plants; [14]): NOE | phytotoxicity (qualitative), soil drench (Corn plants; [12]): NOE | phytotoxicity (qualitative), soil drench (Corn plants; [13]): NOE | inhibition of corn seed germination (corn seeds): significantly inhibited by all compounds screened except for

O=C(O)COc1ccc(Cl)cc1Cl [2,4-D, 2,4-dichlorophenoxyacetic acid]
LC50 Value ([3]; Palmer Amaranth (Table 6)): 1300 ppm | Selective Toxicity Compared to Bluegrass ([3]; Palmer Amaranth compared to bluegrass): 3.54 | LC50 Value ([3]; Palmer Amaranth, 2-week post application, probit): 465.04 ppm | LC50 Value ([3]; Palmer Amaranth, 3-day post application, probit): 1300 ppm | phytotoxicity compared with the other compound ([3]; Palmer amaranth, 95% confidence intervals overlapped): marginally more phytotoxic than thymyloxyacetic acid | LC50 at two weeks compared with three days after application (residual character in soil) ([3]; in vivo): significantly lower LC50 value | LC50 Value ([4]; Waterhemp): 1800 ppm | Selective Toxicity Compared to Bluegrass ([4]; Waterhemp compared to bluegrass): 2.56 | phytotoxic effect on wood sorrel, foliar spray (Wood sorrel): took much longer to die | phytotoxic effect on wood sorrel, foliar spray (Wood sorrel; listed as 2,4-dichloroacetic acid): plant death was not observed until much later; also recorded: uncontrolled growth and some chlorosis | selectivity ratio compared to a blue grass species [5]: 2.56-5.97 fold | LC50 Value ([6]; Cocklebur): 770 ppm | Selective Toxicity Compared to Bluegrass ([6]; Cocklebur compared to bluegrass): 5.97

COC(=O)COc1cc(C)ccc1C(C)C [thymyloxyacetate methyl ester]
overall phytotoxicity to soybean plants, soil drench (Soybean plants [1]): significantly inhibited the growth of soybeans | phytotoxicity (qualitative), soil drench (Soybean plants [1]; [7]): --- | phytotoxicity (qualitative), soil drench (Soybean plants [1]; [9]): --- | phytotoxicity (qualitative), soil drench (Soybean plants [1]; [11]): XXX | phytotoxicity (qualitative), soil drench (Soybean plants [1]; [12]): XXX | phytotoxicity (qualitative), soil drench (Soybean plants [1]; [13]): XXX | phytotoxicity (qualitative), soil drench (Soybean plants [2]): XXX | overall phytotoxicity to corn plants, soil drench (Corn plants): most phytotoxic to corn | phytotoxicity (qualitative), soil drench (Corn plants; [7]): -- | phytotoxicity (qualitative), soil drench (Corn plants; [8]): -- | phytotoxicity (qualitative), soil drench (Corn plants; [9]): -- | phytotoxicity (qualitative), soil drench (Corn plants; [10]): -- | phytotoxicity (qualitative), soil drench (Corn plants; [11]): XXX | phytotoxicity (qualitative), soil drench (Corn plants; [14]): XXX | phytotoxicity (qualitative), soil drench (Corn plants; [12]): XXX | phytotoxicity (qualitative), soil drench (Corn plants; [13]): XXX

C=CCc1ccc(OCC(=O)OC)c(OC)c1 [eugenyloxyacetic acid methyl ester]
inhibition of corn seed germination (corn seeds): most capable of inhibiting the growth of corn seeds

Reference: patent US12213479B2, “Monoterpenoid/phenylpropanoid-containing compounds and methods of their making and use as herbicides” (KITTRICH CORPORATION, priority 2016, dated 2025)
